Values quoted from earlier work, collected in patent US20060058225A1, “Used of inhibitors of phospholipase a2 for the treatment, prevention or diagnosis of neural inflammatory or demyelinating disease” (McGill University, priority 2002, published 2006).
Like-named read-outs stand apart in the source and are kept apart here.

Legend:
[1] = system: EAE
[2] = system: EAE; conditions: for disease severity score in treated mice: timing of treatment not stated
[3] = system: 180 kDa calcium-dependent form of cPLA2; conditions: isolated from human brain
[4] = system: EAE; remark: listed apart in the source
[5] = system: MS; conditions: for effect on relapses: MS patients
[6] = system: EAE; conditions: guinea pigs
[7] = target: T1, cPLA2 (Homo sapiens, UniProt P47712)
T1 sequence (P47712 1-749): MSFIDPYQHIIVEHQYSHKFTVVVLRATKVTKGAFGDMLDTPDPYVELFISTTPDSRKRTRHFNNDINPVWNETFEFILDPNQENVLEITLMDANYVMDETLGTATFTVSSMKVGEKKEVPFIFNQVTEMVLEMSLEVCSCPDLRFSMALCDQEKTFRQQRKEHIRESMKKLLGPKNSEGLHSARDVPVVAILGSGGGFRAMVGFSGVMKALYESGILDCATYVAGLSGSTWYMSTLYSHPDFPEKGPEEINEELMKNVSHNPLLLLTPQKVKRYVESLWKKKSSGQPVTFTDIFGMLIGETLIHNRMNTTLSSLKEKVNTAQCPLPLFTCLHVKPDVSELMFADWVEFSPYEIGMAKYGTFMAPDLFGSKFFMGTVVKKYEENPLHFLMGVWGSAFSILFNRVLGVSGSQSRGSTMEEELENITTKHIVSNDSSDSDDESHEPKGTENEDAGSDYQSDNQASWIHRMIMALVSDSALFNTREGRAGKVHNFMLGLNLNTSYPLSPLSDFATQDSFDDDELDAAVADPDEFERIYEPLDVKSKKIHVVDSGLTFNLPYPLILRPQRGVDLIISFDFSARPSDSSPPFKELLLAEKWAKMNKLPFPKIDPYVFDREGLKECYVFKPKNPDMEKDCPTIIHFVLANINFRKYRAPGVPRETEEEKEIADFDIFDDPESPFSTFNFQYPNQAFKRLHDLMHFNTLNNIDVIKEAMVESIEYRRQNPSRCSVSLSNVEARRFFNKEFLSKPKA

[8] = system: Ca++-independent PLA2
[9] = system: sPLA2
[10] = treatment given after symptoms occurred

Molecule: CC1=C(/C=C/C(C)=C/C=C/C(C)=C/C(N)=O)C(C)(C)CCC1 [retinamide]
- relapse ([1]; given after disease symptoms appeared): no relapse
- clinical grade, end of course ([1]; given prior to EAE induction): 0.75
- relapse ([1]; given prior to EAE induction): no sign of relapse
- clinical grade reached ([1]; given prior to EAE induction, controls 3 during relapses): 2
- clinical grade, end of course [1, 10]: 2
- clinical grade, start of course [1, 10]: 4

Molecule: O=C(NN=C1CCCCC1)C(=O)NN=C1CCCCC1 [cuprizone]
- clinical score in treated mice ([2]; treatment before symptoms appeared (cuprizone: one week before EAE induction)): 3.3

Molecule: bromophenacyl bromide
- inhibition of 180 kDa calcium-dependent cPLA2 [3]: inhibited

Molecule: CN1C(C(=O)Nc2ccccn2)=C(O)c2ccccc2S1(=O)=O [piroxicam]
- mean clinical grade/score in treated rats ([4]; rats): 1.5

Molecule: estrogen
- delay of disease onset ([2]; mice): about 10 days
- reduction of EAE incidence ([2]; mice, timing not given): ~30%
- disease severity score in treated mice [2]: 1.5

Molecule: O=C1c2c(O)ccc(O)c2C(=O)c2c(NCCNCCO)ccc(NCCNCCO)c21 [mitroxantrone]
- effect on relapses [5]: reduces relapse rate
- side effects ([5]; patients): cardiac toxicity

Molecule: IFN-γ: interferon gamma
- effect on relapses [5]: increases the severity of the rate of relapse

Molecule: NS(=O)(=O)c1cccc2c1c([N+](=O)[O-])cc1nc(O)c(O)nc12 [NBQX]
- clinical score in treated animals ([1]; in vivo): 1.5

Molecule: Glatiramer acetate
- effect on relapses [5]: decreases the rate of relapse
- side effects ([5]; human, in vivo): cardiovascular problems such as chest pain, flushing and tachycardia

Molecule: O=C(O)c1cc(/N=N/c2ccc(S(=O)(=O)Nc3ccccn3)cc2)ccc1O [sulfasalazine]
- disease incidence [6]: reduced disease incidence

Molecule: MT-II: Metallothinine (MT), thought to protect cells from reactive oxygen species
- clinical score ([4]; rats treated starting at the day of onset of symptoms, controls 4.5): 2

Molecule: O=C1O/C(=C/Br)CCC1c1cccc2ccccc12 (stereo not shown) [bromoenol lactone]
- inhibition of cPLA2 [7]: inhibitors
- inhibition of Ca++-independent PLA2 [8]: inhibitors

Molecule: CCCOc1cc([C@]2(C)CNC(=O)O2)ccc1OC [Mesopram]
- clinical score in treated mice ([2]; treatment after symptoms began / at first clinical signs): 2.7
- EAE occurrence ([4]; rats treated before the onset of symptoms): prevented

Molecule: O=C(CBr)c1ccc(Br)cc1 [p-bromophenacyl bromide]
- inhibition of sPLA2 activity [9]: blocked

B1: MBP: myelin basic protein fed for oral tolerance (protein, UniProt P02686 1-304, looked up)
Myelin basic protein: MGNHAGKRELNAEKASTNSETNRGESEKKRNLGELSRTTSEDNEVFGEADANQNNGTSSQDTAVTDSKRTADPKNAWQDAHPADPGSRPHLIRLFSRDAPGREDNTFKDRPSESDELQTIQEDSAATSESLDVMASQKRPSQRHGSKYLATASTMDHARHGFLPRHRDTGILDSIGRFFGGDRGAPKRGSGKDSHHPARTAHYGSLPQKSHGRTQDENPVVHFFKNIVTPRTPPPSQGKGRGLSLSRFSWGAEGQRPGFGYGGRASDYKSAHKGFKGVDAQGTLSKIFKLGGRDSRSGSPMARR
- disease severity score in treated mice [2]: 0.6
- reduction of EAE incidence ([1]; animals, species not given): 80%
- maximum disease severity score ([4]; rats fed prior to disease induction, control 4): 1.4
